Results on one compound are retold here after patent US9249132B2, “Substituted bicyclic aromatic compounds as S-nitrosoglutathione reductase inhibitors” (Nivalis Therapeutics, Inc., priority 2010, dated 2016).

The data set can be described thus: Mouse pharmacokinetic (PK) study. It counts as in vivo. To be noted: plasma, male BALB/c mice, PO 10 mg/kg, IV 2 mg/kg. From the text: The mouse was used to determine the pharmacokinetics of compounds of the invention. This species is widely used to assess the bioavailability of compounds by administering both oral (PO) and intravenous (IV) test articles. Efficacy of the compounds of the invention was compared by assessing plasma exposure in male BALB/c mice either via IV or PO administration at the times of peak activity.
Compounds of the invention were reconstituted in a phosphate buffered saline (PBS)/10% Solutol (HS 15) clear solution resulting in a concentration of 0.2 mg/mL and administered to mice (2 mg/kg) as a single IV dose. Animals were dosed via the lateral tail vein. […] The plasma was transferred into labeled polypropylene tubes and frozen at −70° C. until analyzed by LC/MS/MS.
The compounds of the invention were reconstituted in 40% Propylene Glycol/40% Propylene Carbonate/20% of a 5% Sucrose clear solution resulting in a concentration of 2 mg/mL and administered to mice (10 mg/kg) as a single oral dose via gavage. […] The plasma was transferred into labeled polypropylene tubes and frozen at −70° C. until analyzed by LC/MS/MS.
Plasma samples at each timepoint were analyzed using a LC-MS/MS with a lower limit of quantification (LLOQ) of 1 ng/mL. […]
In addition to the above PK parameters, bioavailability (% F) was calculated.

The bioavailability is dose-corrected exposure relative to a reference, in per cent. Lower therefore signals little systemic uptake.

SMILES strings stand for the structures.

As for `O=C(O)c1ccc(-c2ccc3cc(O)ccc3c2)c(Cl)c1` [Example 1, 3-chloro-4-(6-hydroxynaphthalen-2-yl)benzoic acid], the bioavailability is more than 40%.
